The values below come from patent US20200223826A1, “Glucose-6-Phosphate Dehydrogenase (G6PD)-Modulating Agents And Methods Of Treating G6PD Deficiency” (The Board of Trustees of the Leland Stanford Junior …, priority 2017, published 2020).

One test has as its target T1, D181A G6PD (Homo sapiens, UniProt P11413, D181A).
T1 construct: His (pET-28a) (N, cleaved yes); made in house; host or cells: E. coli C43 (DE3)
As to the kind of experiment: Canton-mimicking mutant: activity and proteolytic stability. It counts as biochemical. As to the method:
(§1) Enzyme activity was measured by monitoring NADPH production, which was coupled with diaphorase converting resazurin to fluorescent resorufin (excitation at 565 nm and emission at 590 nm); fluorescent signal was thus proportional to G6PD activity. Assays were performed at 25° C. and run for 5 minutes in buffer containing 50 mM Tris (pH 7.4), 0.5 mM EDTA, 3.3 mM MgCl2, 1 U/ml diaphorase, 0.1 mM resazurin. 10 ng of recombinant enzymes or 10 μg of cell lysates was used for the assay with 10 μM NADP^+ (Sigma) as cofactor and 100 μM G6P (Sigma) as substrate. Steady-state kinetic parameters were obtained by varying concentrations of NADP^+ (0-10 μM) with a constant concentration of G6P (100 μM) and similarly for G6P (0-100 μM) with a constant concentration of NADP^+ (10 μM) with 10 ng of recombinant enzymes. Data analysis was performed using GraphPad Prism software v.6 (GraphPad Software, La Jolla, Calif. USA). Kinetic parameters were obtained by fitting the data to the Michaelis-Menten equation.
(§2) 200 ng of recombinant enzymes were incubated with 1 μL of 10 ng/μL chymotrypsin for 1 hour at room temperature. 100 μM of the compound was added to some reaction conditions. The following protein level was examined by Western blot.

For the next test, the target named is T2, N185A G6PD (Homo sapiens, UniProt P11413, N185A).
T2 construct: His (pET-28a) (N, cleaved yes); made in house; host or cells: E. coli C43 (DE3)
T2 sequence (P11413 whole entry N185A): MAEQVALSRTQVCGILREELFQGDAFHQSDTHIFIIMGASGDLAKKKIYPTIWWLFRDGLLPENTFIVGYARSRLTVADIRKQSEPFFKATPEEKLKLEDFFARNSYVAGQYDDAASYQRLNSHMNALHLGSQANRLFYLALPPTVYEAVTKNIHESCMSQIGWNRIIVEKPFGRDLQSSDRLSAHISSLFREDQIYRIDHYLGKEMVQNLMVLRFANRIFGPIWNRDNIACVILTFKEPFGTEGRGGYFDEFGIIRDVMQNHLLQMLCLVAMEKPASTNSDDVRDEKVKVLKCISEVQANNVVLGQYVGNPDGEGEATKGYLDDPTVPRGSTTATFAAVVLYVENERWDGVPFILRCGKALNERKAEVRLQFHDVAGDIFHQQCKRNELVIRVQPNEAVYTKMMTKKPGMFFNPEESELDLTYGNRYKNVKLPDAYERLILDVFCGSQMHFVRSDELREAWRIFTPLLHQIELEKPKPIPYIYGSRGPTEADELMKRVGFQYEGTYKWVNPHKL
The description is as above. It counts as biochemical. As to the method: as §1, §2

Test [1] deals with T3, G6PD in lymphocyte lysates carrying the Canton variant (Homo sapiens, UniProt P11413, R459L).
T3 construct: host or cells: lymphocytes from a G6PD-deficient subject
T3 sequence (P11413 2-515 R459L limits assumed): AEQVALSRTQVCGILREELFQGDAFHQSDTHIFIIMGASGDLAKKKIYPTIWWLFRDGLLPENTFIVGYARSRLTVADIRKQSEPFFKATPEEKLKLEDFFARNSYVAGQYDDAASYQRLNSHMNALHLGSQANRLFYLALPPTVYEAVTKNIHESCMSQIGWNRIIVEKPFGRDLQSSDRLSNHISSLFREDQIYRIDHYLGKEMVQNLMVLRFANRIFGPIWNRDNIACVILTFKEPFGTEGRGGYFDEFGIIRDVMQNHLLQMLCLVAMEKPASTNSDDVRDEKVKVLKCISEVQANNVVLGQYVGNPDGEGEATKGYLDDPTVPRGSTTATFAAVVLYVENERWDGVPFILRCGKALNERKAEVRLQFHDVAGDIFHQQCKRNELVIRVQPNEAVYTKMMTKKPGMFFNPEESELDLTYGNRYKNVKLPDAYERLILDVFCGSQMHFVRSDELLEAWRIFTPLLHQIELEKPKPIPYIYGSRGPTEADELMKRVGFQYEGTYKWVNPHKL
As to the kind of experiment: G6PD activity in lymphocyte lysates. It counts as cell-based. The settings on record: in the presence of AG1. As to the method: Lymphocytes derived from a normal subject (HG 00866) and a G6PD-deficient subject carrying Canton variant in G6PD (HG 02367) were purchased from Coriell Institute and cultured in RPMI 1640 supplemented with 15% fetal bovine serum (FBS), 100 U/ml penicillin, and 100 μg/ml streptomycin. An SH-SY5Y neuroblastoma cell line was cultured in Dulbecco's Modification of Eagle's Medium/Ham's F-12 50/50 Mix supplemented with 10% FBS, 100 U/ml penicillin, and 100 μg/ml streptomycin. A G6PD-deficient subject-derived fibroblast cell line carrying Mediterranean variant and normal fibroblast cell line as control were purchased from Coriell Institute (GM 01152) and ThermoFisher Scientific (C0135C), respectively, and cultured in minimum essential medium supplemented with 15% FBS, 100 U/ml penicillin, and 100 μg/ml streptomycin. All the cell lines were maintained at 37° C. in a humidified incubator with an atmosphere of 5% of CO2 and 95% air.
Enzyme activity was measured by monitoring NADPH production, which was coupled with diaphorase converting resazurin to fluorescent resorufin (excitation at 565 nm and emission at 590 nm); fluorescent signal was thus proportional to G6PD activity. Assays were performed at 25° C. and run for 5 minutes in buffer containing 50 mM Tris (pH 7.4), 0.5 mM EDTA, 3.3 mM MgCl2, 1 U/ml diaphorase, 0.1 mM resazurin. […]

In test [2] the test system is zebrafish embryos. Put plainly: ROS levels in chloroquine-treated zebrafish embryos. Type of test: in vivo. As to conditions: chloroquine 50 μg/ml. As for the experimental part: (§3) Embryos were dechorinated with pronase at 24 hours post fertilization (hpf) and treated with 50 μg/ml of chloroquine and/or AG1 by directly adding the compounds to the well. For ROS measurements, embryos were incubated with compounds for 2 hours, and then the ROS detecting reagent (CM-H2DCFDA) was added at a final concentration of 500 ng/ml to the well for a total treatment time of 5 hours. One embryo was placed to each well of a black, opaque 96-well plate. The florescence was analyzed with excitation/emission at 485/525 nm. After ROS assays, embryos at about 32 hpf were pooled and lysed in buffer containing 50 mM Tris (pH 7.4), 150 mM NaCl, 1 mM EDTA, 0.1% NP-40, and protease inhibitor cocktail, which was followed by three cycles of freeze and thawing in liquid nitrogen. The lysate was centrifuged at 14,000 rpm at 4° C. for 15 minutes. Total protein concentration in the supernatants (total lysate) was determined by Bradford method. 50 μg of total lysate was loaded onto 10% SDS-PAGE gels and the protein level was examined by Western blot using anti-G6PD antibody (Abcam (G6PD: AB87230)). 10 μg of total lysate was used for enzymatic assay. 50 μg of the lysate was used to measure NADPH levels using a NADPH quantification kit (Biovision), according to the manufacturer's instructions.

Test [3] deals with zebrafish embryos. Put plainly: NADPH levels in lysates of pooled zebrafish embryos. It counts as in vivo. The settings on record: lysates of pooled AG1-treated embryos. As for the experimental part:
as §3

Another test relates to human erythrocytes. Put plainly: GSH levels in erythrocytes under oxidative stressors. Type of test: cell-based. As to conditions: drug-induced oxidative stress. As to the method:
(§4) De-identified blood samples were obtained from the Stanford Blood Center. Erythrocytes were collected by filtering the samples through a cellulose slurry to remove platelets and leukocytes and then washed with saline. G6PD activity was measured (Beutler E. Red cell metabolism: A manual of biochemical methods (3rd edition). Grune & Stratton (1984)). […] A 5% erythrocyte suspension was pre-incubated with 1-5 μM AG1 at 4° C. overnight, which was followed by treatment with (or without) either 1 mM chloroquine (CQ) or 1 mM diamide for 3-4 hours at 37° C. (for hemolysis assay with chloroquine, the mixture was incubated under light). Then centrifugation at 1,000 rpm for 5 minutes was followed. Hemoglobin release in the supernatant was monitored by measuring absorbance at 540 nm. […] After wash, the samples were lysed with 0.1% Triton X-100 (final concentration), and the florescence was analyzed with excitation/emission at 485/525 nm. GSH measurement was determined using a Cayman glutathione assay kit (Cayman Chemicals, 703002). […] The absorbance was read at 412 nm. For storage assay, a 5% erythrocyte suspension was stored at 4° C. with and without 1 μM AG1, and hemolysis and G6PD activity were monitored every week for 28 days to examine whether AG1 improves preservation of erythrocytes over time. Protein leakage was also examined by measuring the absorbance of the supernatant of samples at 280 nm. […]

The target in test [4] is T4, G6PD in human erythrocytes (Homo sapiens, UniProt P11413).
T4 construct: host or cells: human erythrocytes
T4 sequence (P11413 2-515 limits assumed): as the sequence (P11413 2-515 R459L limits assumed) above, with L458R counted along it
Put plainly: Erythrocyte refrigerated storage assay, G6PD activity. Type of test: cell-based. As to conditions: AG1 1 μM. As to the method: as §4

T1 sequence (P11413 whole entry D181A): as the sequence (P11413 whole entry N185A) above, with D181A, A185N counted along it

For the molecule `SCCNCCc1c[nH]c2ccccc12` [AG1, 2-[2-(1H-indol-3-yl)ethylamino]ethanethiol], the “activity and proteolytic stability” value is “increased activity and proteolytic stability” on D181A G6PD; “increased activity and proteolytic stability” on N185A G6PD. The “enhancement of enzymatic activity in lymphocyte lysates” value in test [1] came out at 78%. Also, the ROS levels entry in the test on zebrafish embryos [2] was “reduced”. The NADPH levels result in the test on zebrafish embryos [3] is “significant increase”. Also, the GSH levels result in the test on human erythrocytes was “increased”. The G6PD activity entry in test [4] is given as “increased”.
